Source: patent publication US20230416245A1, “ADENOSINE ANALOGS FOR THE TREATMENT OF DISEASE” (BIOINTERVENE, INC., priority 2020, published 2023)
pEC50: −log10 of the molar value.

Biological target: ADORA3 (Homo sapiens (Human), UniProt P0DMS8)
Assay: Intracellular calcium release assay (FLIPR)
Format: cell-based
Conditions: for pEC50: CHO-K1 cells, Fluo-4, top concentration 10 μM, read-out: Cell Calcium Assay EC50; for Cell Calcium Efficacy (%): percentage of the response to NECA
Method in brief: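 Cells stably expressing ADORA3 (20,000/well, 16–20 h) were loaded with Fluo-4 Direct plus 2.5 mM probenecid for 50 min at 37 °C and 10 min at RT. Compounds (10-point, 3-fold series) were added on FLIPR and the Max–Min fluorescence taken. Activation % was set against high-agonist and DMSO wells, with variable-slope EC50 and efficacy relative to NECA.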

Chain of ADORA3 (P0DMS8 whole entry): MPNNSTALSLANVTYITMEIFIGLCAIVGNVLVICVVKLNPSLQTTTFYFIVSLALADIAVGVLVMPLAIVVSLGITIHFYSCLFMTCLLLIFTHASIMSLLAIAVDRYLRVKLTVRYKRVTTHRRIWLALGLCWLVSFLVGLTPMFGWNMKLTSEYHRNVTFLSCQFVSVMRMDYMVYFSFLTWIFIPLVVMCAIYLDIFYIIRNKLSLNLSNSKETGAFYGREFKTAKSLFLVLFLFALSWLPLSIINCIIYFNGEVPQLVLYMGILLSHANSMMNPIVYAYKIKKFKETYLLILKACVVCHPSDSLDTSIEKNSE

Structure (SMILES)	pEC50	Cell Calcium Efficacy (%)
CCNc1cc(C#CC2CC2)nc2c1ncn2[C@H]1[C@H](O)[C@H](O)[C@@H]2C[C@@H]21 [Compound 46, (1R,2R,3S,4R,5S)-4-(5-(cyclopropylethynyl)-7-(ethylamino)-3H-imidazo[4,5-b]pyridin-3-yl)bicyclo[3.1.0]hexane-2,3-diol]	≤ 5.00	4.8
O[C@@H]1[C@H](O)[C@@H]2C[C@@H]2[C@H]1n1cnc2c(NCC(F)F)nc(Cl)nc21 [Compound 35, (1R,2R,3S,4R,5S)-4-(2-chloro-6-((2,2-difluoroethyl)amino)-9H-purin-9-yl)bicyclo[3.1.0]hexane-2,3-diol]	8.33	46.8
O[C@@H]1[C@H](O)[C@@H]2C[C@@H]2[C@H]1n1cnc2c(NCC(F)F)cc(Cl)nc21 [Compound 40, (1R,2R,3S,4R,5S)-4-(5-chloro-7-((2,2-difluoroethyl)amino)-3H-imidazo[4,5-b]pyridin-3-yl)bicyclo[3.1.0]hexane-2,3-diol]	8.21	55.9
Cc1c(Cl)nc2c(ncn2[C@H]2[C@H](O)[C@H](O)[C@@H]3C[C@@H]32)c1NCC(F)F [Compound 60, (1R,2R,3S,4R,5S)-4-(5-chloro-7-((2,2-difluoroethyl)amino)-6-methyl-3H-imidazo[4,5-b]pyridin-3-yl)bicyclo[3.1.0]hexane-2,3-diol]	< 5.00	10
